Assay: Effective dose of the compound
Assay type: functional
For `COc1cc(N)c(Cl)cc1C(=O)NC1CCN2CC(c3ccccc3)CC2C1` (stereo not drawn), the ED50 was 0.024 mg/kg.
With `COc1cc(N)c(Cl)cc1C(=O)NC1CCN(Cc2ccccc2)CC1` [CLEBOPRIDE] the ED50 was 0.037 mg/kg.
Compound `CCN(CC)CCNC(=O)c1cc(Cl)c(N)cc1OC` [METOCLOPRAMIDE] has an ED50 of 0.75 mg/kg.

From ChEMBL document CHEMBL1126088, “Conformational analysis of dopamine D-2 receptor antagonists of the benzamide series in relation to a recently proposed D-2 receptor-interaction model” (J Med Chem, 1992)
